Experimental data taken from patent publication US9840512B2, “Antidiabetic bicyclic compounds” (Merck Sharp & Dohme Corp., priority 2013, dated 2017).

biological target: human GPR40 (Homo sapiens, UniProt O14842); test: Inositol Phosphate Turnover (IP1) Assay 2; assay type: cell-based; set-up: expressed in transfected cells; conditions: HEK cells stably expressing human GPR40, Table 2, read-out: Human IP1
Method: Human and mouse GPR40 stable cell-lines were generated in CHO cells stably expressing NFAT BLA (Beta-lactamase). A human GPR40 stable cell-line was generated in HEK cells stably expressing the aequorin expressing reporter. The expression plasmids were transfected using lipofectamine (Life Technologies) following manufacturer's instructions. Stable cell-lines were generated following drug selection.
The assay is performed in 384-well format. HEK cells stably expressing human GPR40 are plated at 15,000 cells per well in growth medium (DMEM/10% fetal calf serum). Cell plates are then incubated 16 hours at 37 degrees in a 5% CO2 incubator.
Measurement of Inositol Phosphate Turnover (IP1) is performed using the CisBio IP-One kit (Part number 62IPAPEB). After the 16 hour incubation, the cells are washed with HEPES buffer and 10 ul of stimulation buffer (prepared as described in the kit) is added to each well. In a separate plate, compounds are diluted in DMSO (400-fold over the final concentration in the assay well) and 25 nl is acoustically transferred to the appropriate well in the assay cell plate. The plates are then incubated for 60 minutes at 37 degrees. 10 ul of detection buffer (also prepared as described in the IP-One kit) is added to each well and the plates are incubated for 60 minutes in the dark. The plates are then read in a Perkin Elmer EnVision or equivalent reader able to measure FRET.

Sequence of human GPR40 (O14842 whole entry): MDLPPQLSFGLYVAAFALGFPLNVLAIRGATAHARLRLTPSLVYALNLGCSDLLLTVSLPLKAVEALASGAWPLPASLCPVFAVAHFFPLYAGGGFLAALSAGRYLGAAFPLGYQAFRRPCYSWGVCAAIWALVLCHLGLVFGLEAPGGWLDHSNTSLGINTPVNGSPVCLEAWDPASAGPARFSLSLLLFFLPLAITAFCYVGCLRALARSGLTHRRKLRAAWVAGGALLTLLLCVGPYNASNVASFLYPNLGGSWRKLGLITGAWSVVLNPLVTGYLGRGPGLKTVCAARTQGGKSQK

SMILES	EC50
COc1ccc(Cl)c(-c2ccc(C3CCc4ccc([C@@H](CC(=O)O)C5CC5)cc4O3)c(F)c2)c1 (mixture of isomers) [Example 92]	19 nM
COc1ccc(F)c(-c2ccc(C3CCc4ccc(C(C5CCC5)C(C)C(=O)O)cc4O3)cc2)c1 (single isomer, unassigned) [Example 155]	1 nM
C[C@H](C(=O)O)[C@H](c1ccc2c(c1)OC(c1ccc(-c3cc(O)ccc3F)cn1)CC2)C1CC1 (mixture of isomers) [Example 107]	132 nM
COc1ccc(F)c(-c2ccc([C@@H]3CCc4ccc([C@H](C5CC5)[C@H](C)C(=O)O)cc4O3)cc2)c1 (single isomer, unassigned) [Example 63]	3.3 nM
COc1ccc(F)c(-c2ccc(C3CCc4ccc([C@@H](CC(=O)O)C5CC5)cc4O3)cc2C(OC)C(C)(C)C)c1 (single isomer, unassigned) [Example 125c]	235 nM
COc1ccc(F)c(-c2ccc(C3CCc4ccc(C(CC(=O)O)C5CC5)nc4O3)cc2)c1 (centres unmarked) [Example 136, 3-cyclopropyl-3-(2-(2′-fluoro-5′-methoxy-[1,1′-biphenyl]-4-yl)-3,4-dihydro-2H-pyrano[2,3-b]pyridin-7-yl)propanoic acid]	217 nM
COc1ccc(F)c(-c2cnc(C3CCc4ccc([C@H](C5CC5)[C@H](C)C(=O)O)cc4O3)cn2)c1 (mixture of isomers) [Example 131]	1.7 nM
COc1ccc(F)c(-c2ccc(C3CCc4ccc([C@H](C5CC5)[C@H](C)C(=O)O)cc4O3)nc2)c1 (single isomer, unassigned) [Example 97c]	2.9 nM
COc1ccc(F)c(-c2ccc(C3CCc4ccc([C@@H](CC(=O)O)C5CC5)cc4O3)nc2)c1 (mixture of isomers) [Example 104]	16 nM
CCOc1cc(-c2ccc(C3CCc4ccc([C@@H](CC(=O)O)C5CC5)cc4O3)cc2)ccc1F (some centres unmarked) [Example 84]	1520 nM
COc1cccc(-c2ccc(C3CCc4ccc([C@@H](CC(=O)O)C5CC5)cc4O3)cc2)n1 (some centres unmarked) [Example 75]	304 nM
COc1ccc(F)c(-c2ccc(C3CCc4ccc([C@@H](CC(=O)O)C5CC5)cc4O3)cc2C(OC)C(C)(C)C)c1 (single isomer, unassigned) [Example 125b]	8.6 nM
O=C(O)C[C@H](c1ccc2c(c1)OC(c1ccc(-c3cccc(OC4CC4)c3)cc1)CC2)C1CC1 (some centres unmarked) [Example 78]	1700 nM
COc1ccc(F)c(-c2ccc(C3CCc4ccc(C(C)CC(=O)O)cc4O3)cc2)c1 (single isomer, unassigned) [Example 138, (S or R)-3-((R or S)-2-(2′-fluoro-5′-methoxy-[1,1′-biphenyl]-4-yl)chroman-7-yl)butanoic acid]	1200 nM
COc1ccc(F)c(-c2ccc([C@@H]3CCc4ccc([C@@H](CC(=O)O)C5CCC5)cc4O3)cc2)c1 (single isomer, unassigned) [Example 151, (3S)-3-cyclobutyl-3-((R or S)-(2-(2′-fluoro-5′-methoxy-[1,1′-biphenyl]-4-yl)chroman-7-yl)propanoic acid]	79 nM
COc1ccc(F)c(-c2ccc(C3CCc4ccc(C(C5CCC5)C(C)C(=O)O)cc4O3)cc2)c1 (single isomer, unassigned) [Example 153]	22 nM
COc1cc(-c2ccc(C3CCc4ccc([C@@H](CC(=O)O)C5CC5)cc4O3)cc2)ccn1 (some centres unmarked) [Example 74]	19 nM
COc1ccc(F)c(-c2ccc(C3CCc4ccc(C(CC(=O)O)C5CC5)cc4O3)cc2C2=CCCC2(C)C)c1 (single isomer, unassigned) [Example 101a]	662 nM
COc1ccc(F)c(-c2ccc([C@H]3CCc4ccc([C@H](CC(=O)O)C5CCC5)cc4O3)cc2)c1 (single isomer, unassigned) [Example 150, (3R)-3-cyclobutyl-3-((R or S)-(2-(2′-fluoro-5′-methoxy-[1,1′-biphenyl]-4-yl)chroman-7-yl)propanoic acid]	660 nM
COc1ccc(F)c(-c2ccc(C3CCc4ccc([C@@H](CC(=O)O)C5CC5)cc4O3)cc2)c1 (single isomer, unassigned) [Example 61]	36 nM
COc1ccc(F)c(-c2ccc(C3CCc4ccc([C@H](C5CC5)[C@H](C)C(=O)O)cc4O3)cc2OC(F)(F)F)c1 (mixture of isomers) [Example 100]	32 nM
COc1cc(-c2ccc(C3CCc4ccc([C@H](C5CC5)[C@H](C)C(=O)O)cc4O3)cc2)c(F)cn1 (single isomer, unassigned) [Example 117b]	0.17 nM
COc1cncc(-c2ccc(C3CCc4ccc([C@@H](CC(=O)O)C5CC5)cc4O3)cc2)n1 (some centres unmarked) [Example 77]	920 nM
COc1cc(-c2ccc(C3CCc4ccc([C@H](C5CC5)[C@H](C)C(=O)O)cc4O3)c(F)c2)ccn1 (mixture of isomers) [Example 133, (2S,3R)-3-cyclopropyl-3-(2-(2-fluoro-4-(2-methoxypyridin-4-yl)phenyl)-chroman-7-yl)-2-methylpropanoic acid]	1.2 nM
COc1ccc(F)c(-c2ccc(C3CCc4ccc(C(C5CCC5)C(C)C(=O)O)cc4O3)cc2)c1 (single isomer, unassigned) [Example 159]	1.8 nM
COc1ccc(F)c(-c2ccc(C3CCc4ccc([C@@H](CC(=O)O)C5CC5)cc4O3)cc2[C@H]2CCCC2(C)C)c1 (mixture of isomers) [Example 102]	66 nM
COc1ccc(F)c(-c2ccc(C3CCc4ccc(C(C)CC(=O)O)cc4O3)cc2)c1 (single isomer, unassigned) [Example 140]	1230 nM

Further lines, results first:

EC50	SMILES
3.9 nM	COc1ccc(F)c(-c2cc(F)c(C3CCc4ccc([C@H](C5CC5)[C@H](C)C(=O)O)cc4O3)nc2C)c1 (single isomer, unassigned) [Example 113a]
21 nM	COc1ccc(F)c(-c2ccc(C3CCc4ccc([C@H](C5CC5)[C@H](C)C(=O)O)cc4O3)nc2C(OC)C(C)(C)C)c1 (single isomer, unassigned) [Example 135b]
0.82 nM	COc1ccc(F)c(-c2cnc(C3CCc4ccc([C@H](C5CC5)[C@H](C)C(=O)O)cc4O3)c(F)c2)c1 (single isomer, unassigned) [Example 105a]
244 nM	COc1ccc(F)c(-c2ccc(C3CCc4ccc([C@@H](CC(=O)O)C5CC5)cc4O3)cn2)c1 (single isomer, unassigned) [Example 122b]
5.8 nM	COc1ccc(F)c(-c2cnc(C3CCc4ccc([C@H](C5CC5)[C@H](C)C(=O)O)cc4O3)cc2OC)c1 (single isomer, unassigned) [Example 108b]
4.1 nM	COc1cc(-c2ccc(C3CCc4ccc([C@H](C5CC5)[C@H](C)C(=O)O)cc4O3)nc2C)ccn1 (single isomer, unassigned) [Example 119a]
0.8 nM	COc1ccc(F)c(-c2ccc(C3CCc4ccc([C@H](C5CC5)[C@H](C)C(=O)O)cc4O3)nc2C(OC)C(C)(C)C)c1 (single isomer, unassigned) [Example 135a]
3180 nM	COc1ccc(F)c(-c2ccc(C3CCc4ccc(C(C)C(C)C(=O)O)cc4O3)cc2)c1 (single isomer, unassigned) [Example 147b]
14 nM	COc1ccc(F)c(-c2cc(F)c(C3CCc4ccc([C@H](C5CC5)[C@H](C)C(=O)O)cc4O3)nc2C)c1 (single isomer, unassigned) [Example 113b]
51 nM	COc1ccc(F)c(-c2cnc(C3CCc4ccc([C@H](C5CC5)C(C)C(=O)O)cc4O3)nc2)c1 (single isomer, unassigned) [Example 124a]

same assay, conditions: HEK cells stably expressing human GPR40, Table 3, read-out: Human IP1 activity

EC50	SMILES
120 nM	COc1ccc(F)c(-c2ccc(C3COc4ccc([C@@H](CC(=O)O)C5CC5)cc4O3)cc2)c1 (single isomer, unassigned) [Example 168]
8.3 nM	COc1ccc(F)c(-c2ccc([C@H]3COc4ccc([C@H](C5CC5)[C@H](C)C(=O)O)cc4O3)cc2-c2cccc3ccn(C)c23)c1 [Example 181]
31 nM	COc1ccc(F)c(-c2ccc(C3COc4ccc([C@@H](CC(=O)O)C5CC5)cc4O3)cc2)c1 (single isomer, unassigned) [Example 167]
870 nM	CC#C[C@@H](CC(=O)O)c1ccc2c(c1)OCC(c1ccc(-c3cc(OC)ccc3F)cc1)O2 (single isomer, unassigned) [Example 177]
5.2 nM	C[C@H](C(=O)O)[C@H](c1ccc2c(c1)OC(C1CN(Cc3cc(C(F)(F)F)ccc3C(F)(F)F)C1)CO2)C1CC1 (single isomer, unassigned) [Example 188]
774 nM	CC#C[C@@H](CC(=O)O)c1ccc2c(c1)OCC(c1ccc(-c3cc(OC)ccc3F)cc1)O2 (single isomer, unassigned) [Example 176]
7.9 nM	COc1ccc(F)c(-c2ccc(C3COc4ccc([C@H](C5CC5)[C@H](C)C(=O)O)c(F)c4O3)cc2)c1 (single isomer, unassigned) [Example 186]
2.6 nM	COc1ccc(F)c(-c2ccc(C3COc4ccc([C@H](C5CC5)[C@H](C)C(=O)O)cc4O3)cc2OC(F)(F)F)c1 (single isomer, unassigned) [Example 171]
16.3 nM	COc1ccc(F)c(-c2ccc([C@H]3COc4ccc([C@H](C5CC5)[C@H](C)C(=O)O)cc4O3)cc2Cl)c1 [Example 179]
1.8 nM	COc1ccc(F)c(-c2ccc(C3COc4ccc([C@H](C5CC5)[C@H](C)C(=O)O)cc4O3)cc2)c1 (single isomer, unassigned) [Example 173]
